Publication PMC12011786, “Pharmacokinetics and stability of methoxyflavones from Kaempferia parviflora in Thai native roosters” (Frontiers in Veterinary Science, 2025)
Read-outs that look alike come from different tables or passages of the source.

Assay: Pharmacokinetics of methoxyflavones after single oral administration of KP ethanolic extract in roosters
Format: in vivo, Thai native roosters (Pradu Hang Dum breed)
Settings: for AUC / Cmax / Tmax / half-life / k el: male, Thai native Pradu Hang Dum, whole blood; for AUC: po; for Cmax / Tmax / half-life / Cl / Vd: n = 9; for k el: n = 9, read-out: Ke (converted)
Procedure: Twenty-seven male Thai native Pradu Hang Dum breed roosters were selected for this study. The sample size was calculated by using the G*power program with the following parameters: α = 0.05, power of test = 0.8, standard deviation = 0.05, and effect size = 0.6. The sample size was nine in each group. […] All animals were obtained from the Research and Development Network Center of Animal Breeding and Omics at Khon Kaen University, Thailand. The roosters were housed in separate cages (60 × 45 × 45 cm) within an open-house system. They were fed a daily commercial diet of 130 g, containing 16% crude protein. Water was provided ad libitum throughout the study.
Blood samples (1 mL) were collected from the brachial vein of each rooster after gentle restraint. The collected blood was immediately transferred into a 1.5 mL microtube containing 10% heparin and gently inverted several times to ensure thorough mixing and prevent clot formation.
The roosters were randomly divided into three groups (n = 9 per group) and orally administered KP extract at different doses: 100, 150, and 200 mg/kg of body weight. The KP extract was prepared by dissolving in a solution of 28% propylene glycol, 35% polyethylene glycol 400, 2% ethanol, and deionized water (added until the total volume was 100%). For the method of animal administration, two individuals administered the KP extract to the chickens. One person restrained each chicken by holding its wings and legs, while the other administered the extract orally via a 10 mL syringe, according to body weight.
After oral administration, blood samples were collected at certain time intervals (0.5, 1, 2, 4, 6, and 12 h). The samples were then stored at −20°C until further analysis.
To extract methoxyflavones from the blood samples, all samples were extracted by liquid–liquid extraction two times using acetonitrile. Each sample was vortexed for 2 min and sonicated for 5 min with 1 mL of acetonitrile. After centrifugation at 2,000 × g for 2 min, the supernatant was transferred to clean microtubes, evaporated to dryness, and reconstituted with 200 μL of methanol. The samples were then filtered through 0.45-μm syringe filters and analyzed using an HPLC assay. Pharmacokinetic parameters were determined using the PKSolver add-in program ([21]).

[1] = 100 mg/kg, single oral KP extract 100 mg/kg, blood, n = 9, read-out: AUC
[2] = 150 mg/kg, single oral KP extract 150 mg/kg, blood, n = 9, read-out: AUC
[3] = 200 mg/kg, range over oral KP extract doses 100, 150, 200 mg/kg, read-out: area under the curve (AUC)
[4] = 200 mg/kg, single oral KP extract 200 mg/kg, blood, n = 9, read-out: AUC
[5] = single oral KP extract 100 mg/kg, blood
[6] = single oral KP extract 150 mg/kg, blood
[7] = single oral KP extract 200 mg/kg, blood

| Compound | AUC [1] [ng·h/mL] | AUC [2] [ng·h/mL] | AUC [3] [ng·h/mL] | AUC [4] [ng·h/mL] | Cmax [5] [ng/mL] | Tmax [5] [h] | half-life [5] [h] | k el [5] [s⁻¹] | Cmax [6] [ng/mL] | Tmax [6] [h] | half-life [6] [h] | k el [6] [s⁻¹] | Cmax [7] [ng/mL] | Tmax [7] [h] | half-life [7] [h] | k el [7] [s⁻¹] | Cl [5] [mL/min/kg] | Vd [5] [L/kg] | Cl [6] [mL/min/kg] | Vd [6] [L/kg] | other results |
| --- | --- | --- | --- | --- | --- | --- | --- | --- | --- | --- | --- | --- | --- | --- | --- | --- | --- | --- | --- | --- | --- |
| COc1cc(OC)c2c(=O)cc(-c3ccccc3)oc2c1 [DMF, 5,7-dimethoxyflavone] | 1020 ± 230 | 1450 ± 170 | 1020 to 1680 | 1680 ± 570 | 340 ± 100 | 1.17 ± 0.37 | 2.56 ± 0.49 | 7.78e-05 | 500 ± 50 | 1.33 ± 0.49 | 2.57 ± 0.2 | 8.33e-05 | 540 ± 80 | 1.17 ± 0.37 | 2.6 ± 0.28 | 9.17e-05 | 137 ± 29.7 | 18.9 ± 1.78 | 120 ± 27.7 | 19.1 ± 1.78 | Cl [7]: 123 ± 36.8 mL/min/kg; Vd [7]: 19.5 ± 2.28 L/kg |
| COc1cc(OC)c2c(=O)c(OC)c(-c3ccc(OC)c(OC)c3)oc2c1 [PMF, 3,5,7,3′,4′-pentamethoxyflavone] | 2620 ± 340 | 3010 ± 420 | 2620 to 3060 | 3060 ± 570 | 640 ± 60 | 1.83 ± 0.37 | 2.03 ± 0.34 | 9.72e-05 | 810 ± 120 | 1.8 ± 0.4 | 2.24 ± 0.71 | 0.000111 | 830 ± 110 | 1.83 ± 0.37 | 2.27 ± 0.93 | 0.000114 | 41 ± 7 | 7.78 ± 0.63 | 47.2 ± 12.7 | 8.24 ± 1.14 | Cl [7]: 53.7 ± 8.67 mL/min/kg; Vd [7]: 8.69 ± 1.25 L/kg |
| COc1ccc(-c2cc(=O)c3c(OC)cc(OC)cc3o2)cc1 [TMF, 5,7,4′-trimethoxyflavone] | 1200 ± 150 | 1360 ± 150 | 1200 to 1450 | 1450 ± 120 | 380 ± 90 | 1.25 ± 0.56 | 2.15 ± 0.71 | 8.33e-05 | 530 ± 60 | 1.25 ± 0.4 | 2.01 ± 0.31 | 9.44e-05 | 590 ± 60 | 1.33 ± 0.47 | 2.03 ± 0.37 | 0.000103 | 76.3 ± 9.83 | 17.8 ± 5.61 | 97.3 ± 11.2 | 20 ± 3.32 | Cl [7]: 82.5 ± 26.3 mL/min/kg; Vd [7]: 12.7 ± 1.73 L/kg |
